Tests used:
[1] = tested on: lat-1 mutant embryos; assay: Embryonic lethality after adenylyl cyclase inhibition, lat-1 mutants; type: in vivo, C. elegans; conditions: 1 mM ddA vs 1% DMSO mock; n > 520
Protocol: (§1) All compounds were obtained from Sigma Aldrich. Forskolin was dissolved in DMSO to 10 mM, 3-isobutyl-1-methylxanthine (IBMX) in Dent´s buffer to 10 mM, 8-bromoadenosine 3′,5′-cyclic monophosphate (8-Br-cAMP) in 1 N ammonium hydroxide to 250 mM and 2',5'-dideoxyadenosine (ddA) was diluted in DMSO to 100 mM prior to final dilution in Dent´s buffer. Peptides were synthesized (see Supporting Experimental Procedures) and dissolved in DMSO to 100 mM prior to final dilution in M9. Worms were incubated in 80 μM forskolin, 10 mM IBMX, 0.25 mM 8-Br-cAMP, 1 mM ddA or 0.1 mM peptide solution, respectively, containing E. coli OP50.
(§2) Supplementary file pgen.1005624.s005.tif: S4 Fig Inhibition of adenylyl cyclases in wild-type hermaphrodites partially mimics the lat-1 phenotype. […] Note that this effect might be not fully penetrant due potential difficulties in drug accessibility. As controls, nematodes were treated with 1% DMSO lacking ddA (mock). Individuals surviving embryogenesis were scored (n > 520). Data are given as means ± SD. n.s. not significant; *** p < 0.001. (TIF) Click here for additional data file.

[2] = tested on: wild-type embryos; assay: Embryonic lethality after adenylyl cyclase inhibition, wild-type; type: in vivo, C. elegans; conditions: adult hermaphrodites and subsequently very early embryos, 1 mM ddA vs 1% DMSO mock; n > 520
Protocol: as §1, §2

[3] = tested on: lat-1(ok1465) nematodes; assay: Lethality rescue assay in lat-1 mutant nematodes; type: in vivo
Description: Fig 2 Division plane defects in lat-1 mutant embryos are rescued by elevation of intracellular cAMP via a Gs protein/adenylyl cyclase pathway. […] In wild-type embryos treated with the RNAi control vector L4440 ABal divides in an anterior-posterior direction (A) whereas in treated lat-1 mutants the division plane is almost perpendicular to MS (B). gsa-1 RNAi by feeding over two generations leads to a turning of the F2 ABal division plane in a direction similar to that in lat-1 mutants (C). F2 lat-1; gsa-1(RNAi) embryos show a similar ABal division plane to lat-1 mutants (D). (E) Cell division plane angles of ABal relative to MS after knockdown of gsa-1. […] The vector L4440 served as negative control. Data are shown as means ± SD. * p < 0.05; *** p < 0.001; n ≥ 11. (F) cAMP levels are reduced in lat-1 embryos compared to a control wild-type population. cAMP levels were measured after lysis (15 μg protein) by cAMP accumulation assay. Assays were performed in three independent experiments, data are given as means ± SD. ** p < 0.01. (G) Rescue of developmental lethality in lat-1 nematodes treated with compounds promoting cAMP accumulation: forskolin (80 μM), IBMX (10 mM) and 8-Br-cAMP (0.25 mM). Mothers and subsequently offspring of wild-type and lat-1 individuals were incubated and individuals reaching adulthood were scored (n = 410). As controls, nematodes were incubated in solvent without drug (mock). Data are shown as means ± SD. * p < 0.05; ** p < 0.01; *** p < 0.001. (H) Forskolin increases cAMP levels in C. elegans embryos and adults. lat-1 mutants and subsequently embryos were incubated with 80 μM forskolin. […] As controls, nematodes were treated with 0.8% DMSO lacking forskolin (mock). Basal cAMP levels of mock control are: 0.70 ± 0.14 nM (wild-type embryos); 0.37 ± 0.19 nM (lat-1 embryos); 1.9 ± 0.7 nM (wild-type adults); 2.3 ± 0.8 nM (lat-1 adults). Assays were performed in three independent experiments, data are given as means ± SD. * p < 0.05; ** p < 0.01; *** p < 0.001. (I-L) Relative positions of ABala, ABalp, and MS in an AB^4 embryo. Schematic representation (top) and DIC microscopy (bottom), scale bars = 10 μm. In wild-type embryos (I) and embryos incubated in 80 μM forskolin for 120 minutes (K) ABal divides in an anterior-posterior direction with only ABalp forming an interface with MS. In lat-1 mutants the division plane is skewed resulting in ABala and ABalp contacting MS (J). lat-1 embryos treated with 80 μM forskolin for 120 minutes display wild-type division and cell interfaces (L). (M) Arrangement of blastomeres in the 12-cell stage embryo. […] The right-hand side is two views of the mean positions of the blastomeres. The spheres are enlarged to convey an impression of the contacts. Forskolin turns the ABal spindle in the mutant in a more anterior direction. (N) Cell division plane angles of ABal relative to MS of untreated wild-type/lat-1 controls and wild-type/lat-1 embryos after incubation of mothers and subsequently embryos for 48 hours in 80 μM forskolin. Upon forskolin treatment, mutant embryos display a wild-type division angle. As controls, nematodes were treated with 0.8% DMSO lacking forskolin (mock). Data are shown as average angles ± SD, *** p < 0.001; n ≥ 12. (O) Forskolin reduces the contact length of ABala to MS. Ratio of relative contact lengths of ABala to MS and ABalp to MS cells lat-1 embryos untreated (control, n = 10) and after incubation of mothers and subsequently embryos for 48 hours in 80 μM forskolin (n = 11). […] Data were calculated from pixel analyses utilizing DIC images and are shown as means ± SD, ** p < 0.01.
All compounds were obtained from Sigma Aldrich. Forskolin was dissolved in DMSO to 10 mM, 3-isobutyl-1-methylxanthine (IBMX) in Dent´s buffer to 10 mM, 8-bromoadenosine 3′,5′-cyclic monophosphate (8-Br-cAMP) in 1 N ammonium hydroxide to 250 mM and 2',5'-dideoxyadenosine (ddA) was diluted in DMSO to 100 mM prior to final dilution in Dent´s buffer. […]

[4] = tested on: C. elegans embryos; assay: Contact length ratio of ABala-MS to ABalp-MS in embryos; type: in vivo; conditions: n = 11
Description: (§3) Fig 2 Division plane defects in lat-1 mutant embryos are rescued by elevation of intracellular cAMP via a Gs protein/adenylyl cyclase pathway. […] In wild-type embryos treated with the RNAi control vector L4440 ABal divides in an anterior-posterior direction (A) whereas in treated lat-1 mutants the division plane is almost perpendicular to MS (B). gsa-1 RNAi by feeding over two generations leads to a turning of the F2 ABal division plane in a direction similar to that in lat-1 mutants (C). F2 lat-1; gsa-1(RNAi) embryos show a similar ABal division plane to lat-1 mutants (D). (E) Cell division plane angles of ABal relative to MS after knockdown of gsa-1. […] The vector L4440 served as negative control. Data are shown as means ± SD. * p < 0.05; *** p < 0.001; n ≥ 11. (F) cAMP levels are reduced in lat-1 embryos compared to a control wild-type population. cAMP levels were measured after lysis (15 μg protein) by cAMP accumulation assay. Assays were performed in three independent experiments, data are given as means ± SD. ** p < 0.01. […] Mothers and subsequently offspring of wild-type and lat-1 individuals were incubated and individuals reaching adulthood were scored (n = 410). […] Data were calculated from pixel analyses utilizing DIC images and are shown as means ± SD, ** p < 0.01. […]

[5] = tested on: lat-1 mutants; assay: Fertility rescue assay (brood size); type: in vivo, C. elegans; conditions: 80 μM forskolin, independently of time and duration of drug application
Protocol: Supplementary file pgen.1005624.s004.tif: S3 Fig A cAMP-mediated signal is involved in the role of LAT-1 in cleavage plane orientation but not in fertility. (A) Fertility defects of lat-1 mutants are not rescued by treatment of hermaphrodites from embryonic stages to adulthood with 80 μM forskolin. Brood size was scored compared to untreated (mock), DMSO-treated (0.8%) and wild-type control. Data are given as means ± SD, n.s. not significant. […] (TIF) Click here for additional data file.
Ten L4 hermaphrodites were allowed to lay eggs on separate NGM plates containing 80 µM forskolin or respective solvent and seeded with OP50. Plates were incubated at 22 °C. Every 24 hours hermaphrodites were transferred onto fresh plates until egg-laying ceased and embryos were scored. Experiments were conducted at least in triplicate. Data were examined with an unpaired two-tailed t test for each genotype and condition, means are presented with SD.

[6] = tested on: cAMP levels in C. elegans embryos and adults; assay: In vivo cAMP measurement in C. elegans embryos and adults; conditions: cAMP accumulation assay after lysis
Description: as §3

[7] = target: rat latrophilin LPHN1 (ADGRL1) (rat) (UniProt O88917)
Sequence of UniProt O88917 (O88917 25-1515): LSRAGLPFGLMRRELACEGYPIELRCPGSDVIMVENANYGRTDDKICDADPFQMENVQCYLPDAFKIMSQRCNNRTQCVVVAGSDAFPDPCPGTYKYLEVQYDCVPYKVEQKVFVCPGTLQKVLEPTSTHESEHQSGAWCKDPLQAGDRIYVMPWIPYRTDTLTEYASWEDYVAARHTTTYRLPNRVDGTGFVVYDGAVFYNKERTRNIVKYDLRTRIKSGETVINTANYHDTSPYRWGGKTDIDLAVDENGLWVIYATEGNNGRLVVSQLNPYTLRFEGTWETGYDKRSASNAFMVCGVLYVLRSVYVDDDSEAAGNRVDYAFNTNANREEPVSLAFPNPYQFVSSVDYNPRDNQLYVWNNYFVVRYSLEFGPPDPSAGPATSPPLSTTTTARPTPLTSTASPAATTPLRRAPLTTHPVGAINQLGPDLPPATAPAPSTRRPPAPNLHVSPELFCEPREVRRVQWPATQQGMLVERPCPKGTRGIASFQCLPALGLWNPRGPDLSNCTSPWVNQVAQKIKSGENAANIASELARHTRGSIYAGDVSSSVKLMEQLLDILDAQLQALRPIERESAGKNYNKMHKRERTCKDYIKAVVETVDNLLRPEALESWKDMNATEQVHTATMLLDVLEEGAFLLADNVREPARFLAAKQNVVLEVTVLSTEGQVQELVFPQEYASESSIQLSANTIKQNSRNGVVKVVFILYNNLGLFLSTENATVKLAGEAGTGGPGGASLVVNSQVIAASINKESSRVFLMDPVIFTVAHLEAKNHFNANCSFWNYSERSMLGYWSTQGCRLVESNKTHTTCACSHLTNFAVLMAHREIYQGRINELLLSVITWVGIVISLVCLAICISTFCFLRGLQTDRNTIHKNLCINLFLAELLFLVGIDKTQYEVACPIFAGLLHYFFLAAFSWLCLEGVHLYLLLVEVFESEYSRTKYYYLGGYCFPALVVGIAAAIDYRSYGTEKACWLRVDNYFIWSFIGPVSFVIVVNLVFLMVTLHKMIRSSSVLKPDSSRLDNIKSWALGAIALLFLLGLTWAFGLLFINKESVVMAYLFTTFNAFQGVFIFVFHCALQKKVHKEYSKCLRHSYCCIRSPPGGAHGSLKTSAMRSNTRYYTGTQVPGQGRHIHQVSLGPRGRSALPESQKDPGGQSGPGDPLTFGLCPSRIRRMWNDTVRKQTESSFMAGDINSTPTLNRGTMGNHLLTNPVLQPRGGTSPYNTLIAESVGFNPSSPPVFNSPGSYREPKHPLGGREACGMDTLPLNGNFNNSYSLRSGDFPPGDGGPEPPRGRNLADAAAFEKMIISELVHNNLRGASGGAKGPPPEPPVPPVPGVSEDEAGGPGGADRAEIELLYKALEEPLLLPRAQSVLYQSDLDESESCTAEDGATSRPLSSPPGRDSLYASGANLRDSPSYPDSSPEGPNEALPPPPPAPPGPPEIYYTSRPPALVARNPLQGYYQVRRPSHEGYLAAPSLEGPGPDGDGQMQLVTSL

[8] = target: T1, C. elegans latrophilin homolog LAT-1 (C. elegans) (UniProt G5EDW2)
T1 sequence: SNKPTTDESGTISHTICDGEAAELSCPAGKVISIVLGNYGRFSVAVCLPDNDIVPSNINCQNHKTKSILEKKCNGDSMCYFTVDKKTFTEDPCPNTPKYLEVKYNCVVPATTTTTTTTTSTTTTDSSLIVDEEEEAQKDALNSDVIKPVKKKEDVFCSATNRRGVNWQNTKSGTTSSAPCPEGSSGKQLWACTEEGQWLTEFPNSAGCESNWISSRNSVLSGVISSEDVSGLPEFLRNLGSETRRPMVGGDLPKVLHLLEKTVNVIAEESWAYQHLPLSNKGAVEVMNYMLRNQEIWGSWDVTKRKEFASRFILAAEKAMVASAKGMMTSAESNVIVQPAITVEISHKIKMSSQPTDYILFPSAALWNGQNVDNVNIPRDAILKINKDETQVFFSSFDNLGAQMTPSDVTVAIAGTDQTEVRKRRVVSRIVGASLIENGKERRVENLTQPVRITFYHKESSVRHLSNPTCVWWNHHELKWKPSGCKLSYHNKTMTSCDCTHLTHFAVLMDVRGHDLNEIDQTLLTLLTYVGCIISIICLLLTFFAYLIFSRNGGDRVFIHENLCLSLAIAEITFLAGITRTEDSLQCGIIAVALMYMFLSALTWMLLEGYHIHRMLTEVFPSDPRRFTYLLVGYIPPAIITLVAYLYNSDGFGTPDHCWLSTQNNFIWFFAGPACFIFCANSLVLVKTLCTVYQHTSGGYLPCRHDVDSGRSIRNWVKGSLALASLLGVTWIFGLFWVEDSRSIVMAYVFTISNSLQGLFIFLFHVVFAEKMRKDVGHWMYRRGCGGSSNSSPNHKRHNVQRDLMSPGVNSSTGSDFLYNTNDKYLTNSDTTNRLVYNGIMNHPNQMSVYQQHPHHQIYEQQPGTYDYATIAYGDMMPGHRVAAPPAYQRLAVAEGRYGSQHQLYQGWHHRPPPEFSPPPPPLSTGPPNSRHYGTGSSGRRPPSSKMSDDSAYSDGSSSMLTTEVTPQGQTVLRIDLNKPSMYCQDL

Molecule: C[C@H]1O[C@@H](n2cnc3c(N)ncnc32)C[C@@H]1O [ddA, 2',5'-dideoxyadenosine]
- embryonic lethality in lat-1 mutant embryos, in words [1]: not in lat-1 mutant embryos
- embryonic lethality in wild-type, in words [2]: specific embryonic lethality

Molecule: C=C[C@@]1(C)CC(=O)[C@]2(O)[C@@]3(C)[C@@H](O)CCC(C)(C)[C@@H]3[C@H](O)[C@H](OC(C)=O)[C@@]2(C)O1 [forskolin]
- effect on embryonic lethality of lat-1 worms, in words ([3]; L4 larvae and subsequently embryos incubated, forskolin 80 μM, IBMX 10 mM, 8-Br-cAMP 0.25 mM): amelioration of embryonic lethality
- time point of drug application needed for rescue of developmental lethality, in words ([3]; lat-1 mutants, 80 μM forskolin): only when adding forskolin to the mother or the very early embryonic stages
- survival rate (individuals reaching adulthood) ([3]; lat-1 worms, mothers (L4) and subsequently offspring incubated in 80 μM forskolin, untreated 33%): 73%
- effect of concentrations higher than 80 μM on C. elegans, in words ([3]; various concentrations tested): higher concentrations were detrimental
- concentration with optimal effect ([3]; various concentrations tested on C. elegans): 80 µM
- contact of ABala to MS in wild-type embryos, in words ([4]; forskolin-treated wild-type embryos, 80 μM): does not contact MS
- contact of ABala to MS in lat-1 embryos, in words ([4]; lat-1 embryos, mothers and subsequently embryos 48 hours in 80 μM forskolin, untreated ratio 0.72 ± 0.03): strongly reduced
- rescue of reduced brood size of lat-1 mutants, in words [5]: did not detect any rescue
- cAMP levels in embryos, in words ([6]; lat-1 mutants and subsequently embryos incubated with 80 μM forskolin vs 0.8% DMSO mock): increase in cAMP levels
- cAMP in hermaphrodites, in words ([6]; wild-type and lat-1 hermaphrodites (L4 stage), 80 μM forskolin 48 hours vs 0.8% DMSO mock): elevated cAMP

Molecule: RP13, peptide of 13 amino acids C-terminal of the rat LPHN1 GPS cleavage site
- cAMP accumulation (ALPHAScreen) in COS-7 cells transfected with rat LPHN1 and stimulated with 1 mM peptide, fold over basal [7]: 2.3 fold

Molecule: THFAVLMDVRGH [CP12, peptide of 12 amino acids C-terminal of the LAT-1 GPS cleavage site]
- cAMP accumulation (ALPHAScreen) in lat-1-transfected COS-7 cells stimulated with 1 mM peptide, fold over basal [8]: 1.6 fold

— PMC4624771, “Oriented Cell Division in the C. elegans Embryo Is Coordinated by G-Protein Signaling Dependent on the Adhesion GPCR LAT-1” (PLoS Genetics, 2015)
